From publication PMC8533176, “1,5-Benzodiazepin-2(3H)-ones: In Vitro Evaluation as Antiparkinsonian Agents” (Antioxidants, 2021)

How the values were obtained:
SH-SY5Y cells [1] = assay: Neuroprotection in the 6-OHD neurotoxicity-induced model, MTT; assay type: cell-based, human; details: 6-OHD 250 µM 48 h; compounds 24 h before
SH-SY5Y cells [2] = assay: Apoptosis and necrosis by flow cytometry (Annexin V-PE/7-AAD); details: 10 and 20 µM 24 h, then H2O2 1 mM 4 h
[3] = as above; details: human, SH-SY5Y cells
SH-SY5Y cells [4] = assay: Neuroprotection in the MPP+ neurotoxicity-induced model, MTT; assay type: cell-based, human; details: MPP+ 700 µM 48 h; compounds 24 h before
SH-SY5Y cells [5] = assay: Mitochondrial superoxide levels (MitoSOX); assay type: cell-based, human; details: H2O2 250 µM; compounds 24 h before
Procedure: Mitochondrial superoxide levels were measured with MitoSOX red (3,8-phenanthridinediamine, 5-(60-triphenylphosphoniumhexyl)-5,6-dihydro-6-phenyl) from Molecular Probes (Thermo Fisher Scientific, 29851Willow Creek Road, Eugene, OR, USA). After SH-SY5Y cell treatment in 96-well culture black clear bottom plates, the medium was removed and cells were washed with PBS and afterward, MitoSOX red (final concentration of 5 µM) in 200 µL of PBS was added and incubated for 20 min at 37 °C. After incubation, the cells were washed with warm PBS buffer, and fluorescence was measured at 510 nm excitation/640 nm emission wavelengths in a Varioskan microplate reader (Thermo Fisher Scientific, Vantaa, Finland).

SH-SY5Y cells [6] = assay: Neuroprotection against H2O2-induced oxidative stress, MTT; details: H2O2 250 µM 24 h; compounds 5-50 µM 24 h before; Figure 8
[7] = tested on: Caspase-3 activity in SH-SY5Y cells; assay: Caspase-3 activity; assay type: cell-based, human; details: H2O2 500 µM 4 h; compound 24 h before
Procedure: Caspase-3 activity was measured using the Abcam fluorimetric kit (ab39383) according to the manufacturer’s instructions. Cells are washed with ice-cold PBS and lysed with lysis buffer. After compound and stressor treatments, SH-SY5Y cells were scraped off from p6 plates and collected in a 1.5 mL Eppendorf vial. The cell suspension was then centrifuged at 9000× g for 10 min at 4 °C. The supernatant was collected and stored at −80 °C for 24 h. Caspase 3 activity was measured as the ability of the cell extract to cleave the […] fluorochrome. The sample’s protein concentration was determined by the Bradford method. The reaction assay was performed by the addition of 50 μL of the cell lysate into the wells of a black 96-well culture plate followed by the addition of 50 μL of 2× reaction buffer containing DTT (10 mM) and caspase-3 substrate DEVD-AFC (final concentration 50 μM). Reagents were mixed by shaking the plate for 2 min at 300 rpm and then incubated at 37 °C for 2 h. Caspase-3 activity was measured as fluorescence intensity in a Varioskan microplate reader at λex = 400 nm and λem = 505 nm wavelengths. Relative fluorescence units (RFU)/mg of protein were calculated, and the fold increase in Caspase-3 activity was compared with that of the control.

SH-SY5Y cells [8] = assay: Calcein-AM cell viability assay under H2O2; assay type: cell-based, human; details: H2O2 250 µM 24 h; 5, 10, 20, and 40 µM; Figure 12
Procedure: Calcein-AM is a fluorescence-based cell viability assay. Calcein-acetoxymethyl (AM) is a non-fluorescent compound that enters the cells where intracellular esterases hydrolyze the acetoxymethyl group. The fluorescent calcein is retained in the living cells, and it can be detected at λex = 495 and λem = 550 nm. After treatment, all the samples were washed with PBS and incubated with 2 μM calcein-AM for 30 min at 37 °C, 5% CO2, and protected from light. The fluorescence was measured in a Varioskan microplate reader (Thermo Fisher Scientific, Vantaa, Finland) with λex = 490 and λem = 520 nm filters. Cell viability was calculated from samples treated with 1% Triton X-100 for 30 min at 37 °C, 5% CO2.
Calcein-AM is a membrane permeant, not a fluorescent compound. Only live cells with intact plasma membrane have esterases that hydrolyze the compound into the green fluorescent dye calcein, which is retained in the cytoplasm. The fluorescent signal obtained is proportional to the number of living cells in the sample. […] Microscopy images in Figure S3 show the neuroprotection activity observed with Calcein-AM for derivative 18.

SH-SY5Y cells [9] = assay: GSH/GSSG ratio; assay type: cell-based, human; details: H2O2 500 µM 6 h; 10 and 20 µM 24 h before
Procedure: GSH and GSSG levels were determined by the method of Vikas et al. with slight modifications. In summary, 2 × 10^5 SH-SY5Ycells were seeded in 6-well culture plates. After 24 h, cells were treated with the test compound and incubated for another 24 h. […] Then, cells were washed twice with cold 50 mM PBS buffer, detached, lysed with lysis buffer, and split into two samples: one for GSH analysis and the other for GSSG determination. For GSH analysis, 20 µL of ortho-phthaldehyde (OPT) 20 mg/mL and 280 µL of monobasic potassium phosphate buffer were added per 100 µL of sample replicate. Samples were vortexed and centrifuged at 4 °C at 13,000× g for 10 min. Afterward, 100 µL of supernatant per well was transferred to a black 96-well culture plate with a clear bottom. Fluorescence was measured in a Varioskan plate reader (λex = 360 nm; λem = 420 nm). Sample GSH concentrations were calculated from a standard calibration curve made by serial dilutions of GSH from 0 to 50 µM. […] Fluorescence was measured in a Varioskan plate reader (λex = 360 nm; λem = 420 nm). Sample GSSG concentrations were calculated from a standard calibration curve made by serial dilutions of GSSG from 0 to 200 µM.

Question: Which results are given for `O=C1CC(c2ccccc2)=Nc2ccccc2N1` [Compound 18, 4-Phenyl-1H-1,5-benzodiazepin-2(3H)-one]?
Answer: Neuroprotection, cell viability (MTT), 6-OHD model (SH-SY5Y cells [1]): significant neuroprotection; Effect on apoptotic cell populations (SH-SY5Y cells [2]): reduced the number of late apoptotic cells; viability at 24 h, 10 µM [3]: 26.6%; viability at 24 h, 20 µM [3]: 28.1%; Neuroprotection, cell viability (MTT), MPP+ model (SH-SY5Y cells [4]): small significant neuroprotection at 1 and 2 µM; Reduction in mitochondrial superoxide levels (SH-SY5Y cells [5]): reduce mitochondrial superoxide levels in a dose-dependent manner; Neuroprotection effect, cell viability (MTT) (SH-SY5Y cells [6]): significantly improved; Caspase-3 activity reduction [7]: reduced the levels of activated caspase 3; Neuroprotection, Calcein-AM cell counting (SH-SY5Y cells [8]): statistically significant neuroprotectant activity; GSH/GSSG ratio (SH-SY5Y cells [9]): improved the GSH/GSSG ratios of cells under oxidative stress, although without statistical significance
